Reference: patent US10994016B2, “Graphene oxide mediated cellular delivery of gadolinium-labeled molecules” (Northwestern University, priority 2015, dated 2021)

Tested on: HeLa cells
Experiment: Cellular delivery studies with and without GO co-incubation, HeLa
Type: cell-based
Method: ICP-MS Samples were prepared in 15-mL conical tubes by adding ACS reagent grade nitric acid (70%), followed by incubation at 70° C. overnight to allow for complete sample digestion. The effectiveness of this digestion protocol was previously validated for GO. After incubation, a multi-element internal standard (containing Bi, Ho, In, Li, Sc, Tb, and Y, Inorganic Ventures, Christiansburg, Va.) and milli-Q water (18.2 MΩ·cm) were added to produce a final sample of 3% (v/v) nitric acid and 5 ng/mL internal standard.
ICP-MS was performed on a computer-controlled (Plasmalab software) Thermo X series II ICP-MS (Thermo Fisher Scientific, Waltham, Mass., USA) operating in standard mode equipped with an ESI SC-2 autosampler (Omaha, Nebr., USA). Each sample was acquired using 1 survey run (10 sweeps) and 3 main (peak jumping) runs (100 sweeps). The isotopes selected for analysis were Gd with In and Ho isotopes selected as internal standards for data interpolation. Instrument performance is optimized daily through an autotune followed by verification via a performance report (passing manufacturer specifications). Instrument calibration was accomplished by preparing individual-element Gd standards (Inorganic Ventures, Christiansburg, Va., USA) using concentrations of 0.78125, 1.5625, 3.125, 6.25, 12.50, 25.00, 50.00, 100.0, and 200.0 ng/mL containing 3.0% nitric acid (v/v) and 5.0 ng/mL of multi-element internal standard.
Dulbecco's modified phosphate buffered saline (DPBS), media, and dissociation reagents were purchased from Life Technologies (Carlsbad, Calif.). CorningBrand® cell culture consumables (flasks, plates, etc.) and sera were purchased from VWR Scientific (Radnor, Pa.). HeLa cells (ATCC® CCL-2™) and KB cells (ATCC® CCL-17™) were purchased from the American Type Culture Collection (ATCC, Manassas, Va.) and cultured in phenol red-free minimum essential media (MEM) supplemented with 10% fetal bovine serum (FBS). Prior to all experiments, cells were plated and allowed to incubate for 24 hours before dosing. Cells were harvested with 0.25% TrypLE for 5 minutes at 37° C. in a 5.0% CO2 incubator. For sterilization, all Gd(III)-labeled molecules were filtered with 0.2 μm sterile filters prior to concentration determination and storage at 4° C. GO was used as prepared without further sterilization. […] Cells were grown in a humidified incubator operating at 37° C. and 5.0% CO2.
Cell counting was conducted using a Guava EasyCyte Mini Personal Cell Analyzer (EMD Millipore, Billerica, Mass.). After cell harvesting, an aliquot (50 μL) of the cell suspensions was mixed with Guava ViaCount reagent (150 μL) and allowed to stain at room temperature for at least 5 minutes. The dilution factor of 4 was determined based upon optimum machine performance (20-150 cells/μL). After vortexing for 10 sec, stained cells were counted using a Guava EasyCyte Mini Personal Cell Analyzer (PCA) using the ViaCount software module. For each sample, 1000 events were acquired. Gating of live/dead and cell/debris classifications were performed manually by the operator.
Cellular delivery studies were performed with HeLa and KB cells. HeLa and KB were plated at a cell density of approximately 25,000 and 50,000 cells per well, respectively, in a 24-well plate as counted by a hemocytometer. Stock solutions of 1-14 (1 mM), 150 nm GO (100 μg/mL), and 1500 nm GO (100 μg/mL) were prepared using sterile Milli-Q water. Prior to dosing, 80 μL ([…]) of each GO (150 nm and 1500 nm) and 80 μL (80 nmol) of each Gd(III)-labeled molecule (1-14) were mixed and allowed to adsorb for at least 15 minutes. 150 μL Gd(III)-GO solutions were added to 250 μL media to give a final concentration of 188 μM Gd and 18.8 μg/mL GO. Cells were incubated with the mixture of Gd(III)-labeled molecules and GO for […]. To harvest, cells were rinsed in-plate three times with 500 μL PBS and trypsinized using 100 μL 0.25% TrypLE. […]

Substance: Diethylenetriaminepentaacetic acid gadolinium(III) dihydrogen salt hydrate [Molecule 11]
- Enhancement by GO (35 mM Magnevist, 20 μg/mL GO, 24-well plates): 3.3 ×
- Enhancement by GO (6-well plates): 3.1 ×
- Delivery enhancement without adsorption time (150 nm GO, mixture added directly to media): abolished
- Delivery enhancement without adsorption time (1500 nm GO, 188 μM Gd(III), 18.8 μg/mL GO): same result
- Magnevist uptake (with GO, 35 mM Magnevist, 20 μg/mL GO (150 nm), 17 trials): 515±319 fmol Gd/cell
- Typical cellular Gd(III) content (with GO, 35 mM Magnevist, 20 μg/mL GO, 24-well plates, N=11): 299±67 fmol/cell
- Loading (cellular Gd(III) content) (with GO, 6-well plates, N=13): 151±56 fmol/cell
- Magnevist uptake (without GO, 35 mM Magnevist, 10 trials): 115±32 fmol Gd/cell
- Typical cellular Gd(III) content (without GO, 35 mM Magnevist, 24-well plates, N=4): 91±9 fmol/cell
- Loading (cellular Gd(III) content) (without GO, 6-well plates, N=4): 49±19 fmol/cell
